Holding throughout (format): functional
For assay [1], the species on record is Rattus norvegicus. The assay can be described thus: The equi-effective molar ratio of the concentration to that of dequalinium that cause 50% inhibition of the hyperpolarization (AHP).
The species named for assay [2] is Rattus norvegicus. As to the kind of experiment: Ratio of the negative logarithmic concentration to that of dequalinium that cause 50% inhibition of the hyperpolarization (AHP).
The species named for assay [3] is Rattus norvegicus. As to the kind of experiment: Ability to inhibit the hyperpolarization (AHP) in cultured rat sympathetic neurons. The following applies: Sympathetic neuron.

Data on 8 molecules can be found in ChEMBL document CHEMBL1128850, “Synthesis and qsar of dequalinium analogues AS K+ channel blockers. investigations on the role of the 4-amino group” (Bioorg Med Chem Lett, 1995).

For orientation: IC50 means the concentration that inhibits the measured activity by half. Higher therefore signals weaker potency in that assay. For the molecule `Nc1cc[n+](CCCCCCCCCC[n+]2ccc(N)c3ccccc32)c2ccccc12`, in assay [1], the EMR amounted to 1.3. In addition, the pEMR in assay [2] is -0.11. Besides, 1.4 µM corresponded to half-maximal inhibition in assay [3] (IC50).
As to `CN(C)c1cc[n+](CCCCCCCCCC[n+]2ccc(N(C)C)c3ccccc32)c2ccccc12`, the EMR in assay [1] turned out to be 1.4. The pEMR in assay [2] is reported as -0.15. Further, half-maximal inhibition in assay [3] (IC50) was put at 1.4 µM.
Taken in the same sequence, the figures for `c1ccc(Oc2cc[n+](CCCCCCCCCC[n+]3ccc(Oc4ccccc4)c4ccccc43)c3ccccc23)cc1` were 6.5, -0.81 and 2.7 µM.
On the same counts, the results for `CC(=O)Nc1cc[n+](CCCCCCCCCC[n+]2ccc(NC(C)=O)c3ccccc32)c2ccccc12` are 5.5, -0.74 and 4.5 µM.
Take `c1ccc2c(c1)ccc[n+]2CCCCCCCCCC[n+]1cccc2ccccc21`: in assay [1], the EMR turned out to be 15. For the same molecule, the pEMR in assay [2] is recorded as -1.18.
With `Cc1cc(N)c2ccccc2[n+]1CCCCCCCCCC[n+]1c(C)cc(N)c2ccccc21.[Cl-].[Cl-]` [DEQUALINIUM CHLORIDE], in assay [1], the EMR is 1. For the same molecule, the pEMR in assay [2] was found to be 0.
Regarding `c1ccc(Nc2cc[n+](CCCCCCCCCC[n+]3ccc(Nc4ccccc4)c4ccccc43)c3ccccc23)cc1`, the EMR in assay [1] was 3.4. Further, in assay [2], the pEMR is on record as -0.53. For the same molecule, in assay [3], the midpoint of inhibition, the IC50, lay at 2.4 µM.
On the same counts, the results for `Cc1cc[n+](CCCCCCCCCC[n+]2ccc(C)c3ccccc32)c2ccccc12` are 26, -1.41 and 15 µM.
